The test system of data set [1] is Cryptococcus neoformans ATCC36556 (CN). As to the kind of experiment: in vitro antifungal activity, minimum inhibitory concentration. Format: cell-based. Here is the method: (§1) The antifungal activities of representative 1,2-dithiin compounds listed below were determined in vitro using three fungal cultures: Candida albicans ATCC10259 (CA), Cryptococcus neoformans ATCC36556 (CN), and Aspergillus fumigatus ATCC13073 (AF).
(§2) The method used to determine in vitro antifungal activity is discussed in McGinnis, M. R., Laboratory Handbook of Medical Mycology, Academic Press, New York, London, p. 661 (1980); and Drouget, E.; Dupont, B.; Improvist, L.; Vivian, M. A.; and Tortorano, A. M.; "Disc Agar Diffusion and Microplate Automatized Techniques for In Vitro Evaluation of Antifungal Agents on Yeast and Sporulated Pathogenic Fungi" in In Vitro and In Vivo Evaluation of Antifungal Agents, Eds. lwata, K. and Vanden Bossche, H., Elsevier Science Publishers, New York, Oxford, p. 303 (1986).

Data set [2] concerns Aspergillus fumigatus ATCC13073 (AF). Described as above. Format: cell-based. Here is the method: as §1, §2
The test system of data set [3] is Candida albicans ATCC10259 (CA). Described as above. Format: cell-based. Here is the method:
as §1, §2

The test system of data set [4] is Cryptococcus neoformans MI-106 (MI-106). The description is as above. The conditions noted are these: Cryptococcus neoformans MI-106, in vitro. Format: cell-based.
From the text: (§3) Additionally, two 1,2-dithiin compounds, 3-(hydroxymethyl)-6-[N-hydroxyiminomethyl]-1,2-dithiin and 3,6-[bis(N-hydroxyiminomethyl)]-1,2-dithiin, were chosen as compounds representative of the 1,2-dithiin class to be tested against a variety of fungi: Candida albicans A-26 (A-26), Candida albicans B311 (B311), Candida krusei GK7831 (CK), Candida parapsilosis CP18 (CP), Candida tropicalis 1525 (CT), Cryptococcus neoformans MI-106 (MI-106), Aspergillus fumigatus WM-1 (WM-1) and Trichophyton rubrum ATCC18762 (TR). The minimum inhibitory concentration (MIC) for 3-(hydroxymethyl)-6-[N-hydroxyiminomethyl]-1,2-dithiin and 3,6-[bis(N-hydroxyiminomethyl)]-1,2-dithiin are shown below in Table II.
as §2

Data set [5] deals with Candida albicans A-26 (A-26). The description is as above. Format: cell-based. The conditions noted are these: Candida albicans A-26, in vitro.
From the text: as §3, §2

For data set [6], the system named is Candida tropicalis 1525 (CT). The description is as above. The data set is classed as cell-based. The following applies: Candida tropicalis 1525, in vitro.
From the text: as §3, §2

Data set [7] concerns Aspergillus fumigatus WM-1 (WM-1). Described as above. Format: cell-based. The following applies: Aspergillus fumigatus WM-1, in vitro.
From the text: as §3, §2

Data set [8] deals with Candida parapsilosis CP18 (CP). Described as above. The conditions noted are these: Lodderomyces parapsilosis. Format: cell-based.
From the text: as §3, §2

Data set [9] has as its system Candida albicans B311 (B311). Described as above. The data set is classed as cell-based.
From the text: as §3, §2

The subject of data set [10] is Trichophyton rubrum ATCC18762 (TR). The description is as above. The data set is classed as cell-based.
From the text: as §3, §2

The subject of data set [11] is Candida krusei GK7831 (CK). The description is as above. The data set is classed as cell-based. The conditions noted are these: Pichia kudriavzevii.
From the text: as §3, §2

The conditions of data set [12]: literature; cited from earlier work.
For the next data set, the system named is fungi. The following applies: natural products, literature; cited from earlier work.
In a further data set the test system is virus. The conditions noted are these: literature; cited from earlier work.

The values that follow come from patent US5580897A, “1,2-dithiins having antifungal activity” (Shaman Pharmaceuticals, Inc., priority 1995, dated 1996).

SMILES strings stand for the structures. ≈ marks a conversion by molar mass, not a printed value.

As a reminder, the MIC is the lowest concentration that inhibits growth of the organism. A low value points to a more susceptible organism. For the compound `CON=CC1=CC=C(C=NOC)SS1` [3,6-Bis[N-methoxyiminomethyl]-1,2-dithiin], the figures for the MIC in data set [1], in data set [2] and in [3] were 1.6 µg/mL (≈ 6.95 µM), 6.3 µg/mL (≈ 27.4 µM) and 0.8 µg/mL (≈ 3.47 µM), respectively.
As for `ON=CC1=CC=C(C=NO)SS1` [3,6-[Bis(N-hydroxyiminomethyl)]-1,2-dithiin], the minimum inhibitory concentration (MIC) stood at 1.6 µg/mL (≈ 7.91 µM) in data set [4]; 0.2 µg/mL (≈ 0.989 µM) in data set [5]; 1.6 µg/mL (≈ 7.91 µM) in data set [6]; 0.2 µg/mL (≈ 0.989 µM) in data set [7]; 0.2 µg/mL (≈ 0.989 µM) in [8]; 0.1 µg/mL (≈ 0.494 µM) in data set [9]. For the same compound, the MIC stood at 0.05 µg/mL (≈ 0.247 µM) in [10]; 6.3 µg/mL (≈ 31.1 µM) in data set [11]; 0.8 µg/mL (≈ 3.96 µM) in data set [1]; 0.4 µg/mL (≈ 1.98 µM) in [2]; 0.1 µg/mL (≈ 0.494 µM) in data set [3].
In the case of `O=CC1=CC=C(C=O)SS1` [3-6-Bis(formyl)-1,2-dithiin, 3,6-Bis(formyl)-1,2-dithiin], the values for the MIC in data set [1], in [2] and in [3] were 1.6 µg/mL (≈ 9.29 µM), 6.3 µg/mL (≈ 36.6 µM) and 1.6 µg/mL (≈ 9.29 µM), respectively.
In the case of `N#C/C=C/C1=CC=C(CO)SS1` [3-(Hydroxymethyl)-6-[2-cyanoethene-1-yl]-1,2-dithiin], the MIC came to 3.1 µg/mL (≈ 15.7 µM) in data set [1], 6.3 µg/mL (≈ 31.9 µM) in data set [2] and 12.5 µg/mL (≈ 63.4 µM) in data set [3].
As to `OCC1=CC=C(C=NO)SS1` [3-(Hydroxymethyl)-6-[N-hydroxyiminomethyl]-1,2-dithiin], the MIC in data set [4] turned out to be 1.6 µg/mL (≈ 8.45 µM); in data set [5], 1.6 µg/mL (≈ 8.45 µM); in data set [6], 6.3 µg/mL (≈ 33.3 µM); in [7], 1.6 µg/mL (≈ 8.45 µM); in [8], 3.1 µg/mL (≈ 16.4 µM); in data set [9], 1.6 µg/mL (≈ 8.45 µM). For the same compound, the MIC in data set [10] was 0.8 µg/mL (≈ 4.23 µM); in [11], 6.3 µg/mL (≈ 33.3 µM); in data set [1], 1.6 µg/mL (≈ 8.45 µM); in data set [2], 1.6 µg/mL (≈ 8.45 µM); in [3] it was 1.6 µg/mL (≈ 8.45 µM).
As for `CON=CC1=CC=C(CO)SS1` [3-(Hydroxymethyl)-6-[N-methoxyiminomethyl]-1,2-dithiin], the minimal inhibitory concentration (MIC) in data set [1], in data set [2] and in data set [3] was 6.3 µg/mL (≈ 31 µM) each time.
With `CCOC(=O)/C=C/C1=CC=C(CO)SS1` [3-(Hydroxymethyl)-6-[ethyl propenoate-3-yl]-1,2-dithiin], the MIC in data set [1] came out at 6.3 µg/mL (≈ 25.8 µM); in data set [2], 25 µg/mL (≈ 102 µM); in [3] it was 12.5 µg/mL (≈ 51.2 µM).
For `COC(=O)/C=C/C1=CC=C(CO)SS1` [3-(Hydroxymethyl)-6-[methyl propenoate-3-yl]-1,2-dithiin], in that order: 6.3 µg/mL (≈ 27.4 µM), 6.3 µg/mL (≈ 27.4 µM) and 6.3 µg/mL (≈ 27.4 µM).
For `N#CC1=CC=C(CO)SS1` [3-(Hydroxymethyl)-6-cyano-1,2-dithiin], the MIC in [1], in data set [2] and in data set [3] was 0.8 µg/mL (≈ 4.67 µM) in each case.
`O=CC1=CC=C(CO)SS1` [3-(Hydroxymethyl)-6-formyl-1,2-dithiin, 3-(Hydroxymethyl)-6-aldehydyl-1,2-dithiin]: the MIC in [1] is 6.3 µg/mL (≈ 36.2 µM); in data set [2], 25 µg/mL (≈ 143 µM); in [3] it was 12.5 µg/mL (≈ 71.7 µM).
As for `C=CC#CC#CC1=CC=C(C#CC)SS1` [Thiarubrine A], the cytotoxicity entry in [12] is given as “cytotoxic”. The antifungal activity result with fungi was “possess both antifungal and antiviral activity”. Besides, the antiviral activity result with virus is “possess both antifungal and antiviral activity”.
